Patent US8637526B2, “Pyrazolopyrimidine JAK inhibitor compounds and methods” (Genentech, Inc., priority 2008, dated 2014)

Key:
[1] = tested on: Set-2 cells, which express the JAK2V617F mutant protein; test: STAT5 phosphorylation in Set-2 cells (JAK2-dependent signaling, MSD); assay type: cell-based; settings: Homo sapiens, SET-2, 1 h, read-out: pSTAT5 SET2 EC50
Protocol: The activities of compounds were determined in cell-based assays that are designed to measure JAK2-dependent signaling or proliferation. Compounds were serially diluted in DMSO and incubated with Set-2 cells (German Collection of Microorganisms and Cell Cultures (DSMZ); Braunschweig, Germany), which express the JAK2V617F mutant protein, in 96-well microtiter plates for 1 hr at 37° C. in RPMI medium at a final cell density of 100,000 cells per well and a final DMSO concentration of 0.57%. Compound-mediated effects on STATS phosphorylation were then measured in the lysates of incubated cells using the Meso Scale Discovery (MSD) technology (Gaithersburg, Md.) according to the manufacturer's protocol and EC50 values were determined. Alternatively, serially diluted compounds were added to 384-well microtiter plates in RPMI medium with 10% fetal bovine serum (Invitrogen Corp.; Carlsbad, Calif.) at a final cell density of 2500 cells per well and a final DMSO concentration of 0.3% and incubated at 37° C. for 72 hours. Cell viability was then determined using the CellTiter-Glo® Luminescent Cell Viability Assay according to the manufacturer's protocol (Promega; Madison, Wis.) and EC50 values were determined.

[2] = tested on: TF-1 cells; test: IL-6-stimulated STAT3 phosphorylation in TF-1 cells (JAK1-dependent signaling, MSD); assay type: cell-based; settings: Homo sapiens, TF-1, 0.5 h, read-out: IL6-pSTAT3 TF1 EC50
Protocol: (§1) The activities of compounds were determined in cell-based assays that are designed to measure JAK1 or JAK2-dependent signaling. Compounds were serially diluted in DMSO and incubated with TF-1 cells (American Type Culture Collection (ATCC); Manassas, Va.) in 384-well microtiter plates in OptiMEM medium without phenol red, 1% Charcoal/Dextran stripped FBS, 0.1 mM NEAA, 1 mM sodium pyruvate (Invitrogen Corp.; Carlsbad, Calif.) at a final cell density of 100,000 cells per well and a final DMSO concentration of 0.2%. Human recombinant IL-6 (R&D systems; Minneapolis, Minn.) or EPO (Invitrogen Corp.; Carlsbad, Calif.) was then added at a final concentration of 30 ng/mL or 10 Units/mL, respectively, to the microtiter plates containing the TF-1 cells and compound and the plates were incubated for 30 min at 37° C. Compound-mediated effects on STAT3 or STATS phosphorylation were then measured in the lysates of cells incubated in the presence of IL-6 or EPO, respectively, using the Meso Scale Discovery (MSD) technology (Gaithersburg, Md.) according to the manufacturer's protocol and EC50 values were determined.

[3] = tested on: NK92 cells; test: IL-12-stimulated STAT4 phosphorylation in NK92 cells (TYK2-dependent signaling, MSD); assay type: cell-based; settings: NK92, 1 h, read-out: IL12-pSTAT4 NK92 EC50
Protocol: The activities of compounds were determined in cell-based assays that are designed to measure TYK2-dependent signaling. Compounds were serially diluted in DMSO and incubated with NK92 cells (American Type Culture Collection (ATCC); Manassas, Va.) in 96-well microtiter plates in RPMI medium at a final cell density of 100,000 cells per well and a final DMSO concentration of 0.57%. Human recombinant IL-12 (R&D systems; Minneapolis, Minn.) was then added at a final concentration of 10 ng/mL to the microtiter plates containing the NK92 cells and compound and the plates were incubated for 1 hr at 37° C. Compound-mediated effects on STAT4 phosphorylation were then measured in the lysates of incubated cells using the Meso Scale Discovery (MSD) technology (Gaithersburg, Md.) according to the manufacturer's protocol and EC50 values were determined

[4] = target: human JAK1 kinase domain (Homo sapiens (Human), UniProt P23458); test: JAK1 Inhibition Assay Protocol (Caliper LabChip peptide phosphorylation); assay type: biochemical; settings: enzymatic activity, 25 uM ATP
Chain of human JAK1 kinase domain (P23458 852-1154): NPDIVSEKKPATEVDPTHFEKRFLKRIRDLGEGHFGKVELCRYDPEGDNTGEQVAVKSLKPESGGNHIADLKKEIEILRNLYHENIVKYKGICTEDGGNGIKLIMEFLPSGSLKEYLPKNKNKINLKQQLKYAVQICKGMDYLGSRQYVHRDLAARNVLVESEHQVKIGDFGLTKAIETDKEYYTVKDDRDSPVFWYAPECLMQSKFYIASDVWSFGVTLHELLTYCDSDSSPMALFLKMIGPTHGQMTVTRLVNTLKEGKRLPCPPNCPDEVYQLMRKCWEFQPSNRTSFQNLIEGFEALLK
Description: The catalytically active kinase domain of human JAK1, JAK2, JAK3 or TYK2 was purified from extracts of SF9 insect cells infected with a recombinant baculovirus expression vector encoding the human JAK1, JAK2, JAK3 or TYK2 kinase domains (JAK1 amino acid residues N852-D1154 according to the numbering of GenBank sequence accession number P23458, JAK2 amino acid residues D812-G1132 according to the numbering of GenBank sequence accession number NP_004963.1; JAK3 amino acid residues S783-S1124 according to the numbering of GenBank sequence accession number P52333, and TYK2 amino acid residues N873-C1187 according to the numbering of GenBank sequence accession number P29597). The activity of the JAK1, JAK2, JAK3 or TYK2 kinase domains can be measured by a number of direct and indirect methods, including quantification of phosphorylation of peptide substrates derived from the human JAK3 protein (Saltzman et al., Biochem. Biophys. Res. Commun. 246:627-633 (2004)). The activity of the JAK1, JAK2, JAK3 or TYK2 kinase domains was measured in vitro by monitoring phosphorylation of JAK3 derived peptides using the Caliper LabChip technology.
(§2) The activity of the isolated JAK1 or TYK2 kinase domain was measured by monitoring phosphorylation of a peptide derived from JAK3 ([…] fluorescently labeled on the N-terminus with 5-carboxyfluorescein using the Caliper LabChip technology (Caliper Life Sciences, Hopkinton, Mass.). […] Reactions were incubated at 22° C. in 384-well polypropylene microtiter plates for 30 minutes and then stopped by addition of 25 uL of an EDTA containing solution (100 mM Hepes pH 7.2, 0.015% Brij-35, 150 mM EDTA), resulting in a final EDTA concentration of 50 mM. After termination of the kinase reaction, the proportion of phosphorylated product was determined as a fraction of total peptide substrate using the Caliper LabChip 3000 according to the manufacturer's specifications. Ki values were then determined using the Morrison tight binding model (Morrison, J. F., Biochim. Biophys. Acta. 185:269-296 (1969); William, J. W. and Morrison, J. F., Meth. Enzymol., 63:437-467 (1979)).

[5] = target: human JAK3 kinase domain (Homo sapiens (Human), UniProt P52333); test: biochemical; assay type: biochemical; settings: enzymatic activity, 5 uM ATP; read-out: JAK3 Ki
Chain of human JAK3 kinase domain (P52333 783-1124): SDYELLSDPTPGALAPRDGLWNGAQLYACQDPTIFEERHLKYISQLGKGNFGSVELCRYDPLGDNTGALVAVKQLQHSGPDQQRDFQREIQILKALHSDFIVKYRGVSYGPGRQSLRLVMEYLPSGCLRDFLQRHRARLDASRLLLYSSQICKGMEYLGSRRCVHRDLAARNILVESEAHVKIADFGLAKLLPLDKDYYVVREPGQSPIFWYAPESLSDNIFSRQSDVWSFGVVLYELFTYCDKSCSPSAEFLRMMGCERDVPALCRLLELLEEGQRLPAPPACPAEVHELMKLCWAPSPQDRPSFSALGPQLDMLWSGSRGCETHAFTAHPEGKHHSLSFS
Protocol: The activity of the JAK1, JAK2, JAK3 or TYK2 kinase domains was measured in vitro by monitoring phosphorylation of JAK3 derived peptides using the Caliper LabChip technology.
as §2, with “JAK3” for “JAK1 or TYK2”, “specifications.” for “specifications. Ki values were then determined using the Morrison tight binding model (Morrison, J. F., Biochim. Biophys. Acta. 185:269-296 (1969); William, J. W. and Morrison, J. F., Meth. Enzymol., 63:437-467 (1979)).”

[6] = tested on: TF-1 cells; test: EPO-stimulated STAT5 phosphorylation in TF-1 cells (JAK2-dependent signaling, MSD); assay type: cell-based; settings: Homo sapiens, TF-1, 0.5 h, read-out: EPO pSTAT5 TF1 EC50
Protocol: as §1

SMILES	EC50 [1]	EC50 [2]	EC50 [3]	Ki [4]	Ki [5]	EC50 [6]
Cc1ccc(C)c(-c2nn(C)cc2NC(=O)c2cnn3ccc(N)nc23)c1 [Example 225, 5-amino-N-(3-(2,5-dimethylphenyl)-1-methyl-1H-pyrazol-4-yl)pyrazolo[1,5-a]pyrimidine-3-carboxamide]	0.0128 µM	0.13 µM	0.119 µM			
Nc1ccn2ncc(C(=O)Nc3conc3-c3cccc(Cl)c3)c2n1 [Example 250, 5-Amino-pyrazolo[1,5-a]-pyrimidine-3-carboxylic acid [3-(3-chloro-phenyl)-isoxazol-4-yl]-amide]		0.839 µM	0.105 µM	0.0284 µM	0.0556 µM	0.34 µM
